Data reported in patent publication US8754060B2, “Methods and compositions for inhibition of axonal degeneration by modulation of the DLK/JNK pathway” (Washington University, priority 2008, dated 2014).

Tests used:
[1] = tested on: DRG axons; experiment: DRG axotomy model: axon degeneration 24 hours post-axotomy (phase contrast, degeneration index); type: cell-based, mouse
Excerpt: In these experiments, the inventors cultured embryonic mouse dorsal root ganglion cells (DRGs) for 14-16 days to allow their axons to radiate from the central core of cell bodies before severing the axons with a micro-scalpel. […] Axotomized DLK mutant axons have a 65%+/−3.2% (se) decrease in degeneration index (DI) relative to controls (p<0.0001, n=8 individual axotomized DRG cultures per condition, t-test). Vincristine treatment induces 59%+/−6.3% (se) less DI in DLK mutants relative to controls (p<0.002, n=7 DRG cultures per condition, t-test). […] The initially smooth and continuous axonal processes become rough and irregular axon fragments. The extent of axon breakdown was quantified by measuring the fraction of axonal area occupied by fragmented axons (degeneration index, DI). […] Because non-neuronal cells are eliminated in this DRG culture system, we concluded that DLK must be required within neurons themselves for the normal axon degenerative response.
In these experiments, to determine whether the axon degeneration pathway requires either JNK or p38, we used pharmacological inhibitors of each MAP kinase in the DRG axotomy model. Wild-type DRG cultures were treated with the JNK inhibitor SP600215 and the p38 inhibitor SB203580 starting from 24 hours before axotomy and for the remainder of the experiment.
Unless noted, vehicle and inhibitors were added 24 hours pre-axotomy and left on for the duration of the experiment. FIG. 3A: Vehicle (DMSO). FIG. 3B: SB203580 (P38 inhibitor). FIG. 3C: SP600215 (JNK inhibitor). FIG. 3D: SP600215 added 24 hr pre-axotomy, and removed just before axotomy. FIG. 3E: SF600215 added concurrently with axotomy. FIG. 3F: SP600215 added 3 hours post-axotomy. FIG. 3G: SP600215 added concurrent with axotomy and removed 3 hours post-axotomy.

[2] = tested on: cultured DRG neurons; settings: morphologically similar to that induced by axotomy (Wang et al. 2000; FIG. 2); cited from earlier work

Row | SMILES | degeneration of DRG axons following axotomy ([1]; added 3 hours post-axotomy and continued for the rest of the experiment (FIG. 3F)) | degeneration of DRG axons following axotomy ([1]; added 24 hr pre-axotomy, and removed just before axotomy (FIG. 3D)) | degeneration of DRG axons following axotomy ([1]; added concurrent with axotomy and removed 3 hours post-axotomy (FIG. 3G), vs vehicle (DMSO)) | degeneration of DRG axons following axotomy ([1]; added concurrently with axotomy (FIG. 3E)) | degeneration of DRG axons following axotomy ([1]; inhibitor added 24 hours pre-axotomy and left on for the duration of the experiment, 24 hours post-axotomy, vs vehicle (DMSO) (FIG. 3B, 3C)) | axon degeneration triggered by the drug [2]
1 | O=C1c2ccccc2-c2n[nH]c3cccc1c23 [SP600215, Anthra[1,9-cd]pyrazol-6(2H)-one; 1,9-pyrazoloanthrone] | did not decrease axon degeneration | not protective | significantly less degenerated than A | protective | significantly less degenerated than A | –
2 | CC[C@]1(O)C[C@H]2CN(CCc3c([nH]c4ccccc34)[C@@](C(=O)OC)(c3cc4c(cc3OC)N(C=O)[C@H]3[C@@](O)(C(=O)OC)[C@H](OC(C)=O)[C@]5(CC)C=CCN6CC[C@]43[C@@H]65)C2)C1 [vincristine] | – | – | – | – | – | triggers an axon degeneration
